{
  "source": "patent US8906889B2",
  "about": "“C-3 cycloalkenyl triterpenoids with HIV maturation inhibitory activity” (priority 2012, dated 2014)",
  "data": [
    {"system": "recombinant NL4-3 virus (Renilla luciferase, Gag P373S)", "assay": "HIV cell culture assay (luciferase reporter, MT-2 cells)", "format": "cell-based", "conditions": "Renilla, NL43, MT-2 cells infected for 4-5 days with NLRluc recombinants; luciferase activity", "summary_of_the_method": "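MT-2 cells were infected for 4–5 days with NL4-3 carrying Renilla luciferase in place of part of nef and the Gag P373S change, in the presence of serially diluted inhibitor. Antiviral activity was quantified as luciferase signal from Dual Luciferase reagent.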", "units": {"EC50": "nM"}, "values": [
      {"smiles": "C=C(C)[C@@H]1CC[C@]2(NC(=O)OC(C)(C)C)CC[C@]3(C)[C@H](CC[C@@H]4[C@@]5(C)CC=C(C6=CC7(C6)CC(C(=O)O)(C(=O)O)C7)C(C)(C)[C@@H]5CC[C@]43C)[C@@H]12", "note": "[Example A1, 6-((1R,3aS,5aR,5bR,7aR,11aS,11bR,13aR,13bR)-3a-((tert-butoxycarbonyl)amino)-5a,5b,8,8,11a-pentamethyl-1-(prop-1-en-2-yl)-2,3,3a,4,5,5a,5b,6,7,7a,8,11,11a,11b,12,13,13a,13b-octadecahydro-1H-cyclopenta[a]chrysen-9-yl)spiro[3.3]hept-5-ene-2,2-dicarboxylic acid]", "EC50": 570},
      {"smiles": "C=C(C)[C@@H]1CC[C@]2(NCCN(c3ccccc3)S(=O)(=O)C(F)(F)F)CC[C@]3(C)[C@H](CC[C@@H]4[C@@]5(C)CC=C(C6=CC7(C6)CC(C(=O)O)(C(=O)O)C7)C(C)(C)[C@@H]5CC[C@]43C)[C@@H]12", "note": "[Example A2, 6-((1R,3aS,5aR,5bR,7aR,11aS,11bR,13aR,13bR)-5a,5b,8,8,11a-pentamethyl-1-(prop-1-en-2-yl)-3a-((2-(1,1,1-trifluoro-N-phenylmethylsulfonamido)ethyl)amino)-2,3,3a,4,5,5a,5b,6,7,7a,8,11,11a,11b,12,13,13a,13b-octadecahydro-1H-cyclopenta[a]chrysen-9-yl)spiro[3.3]hept-5-ene-2,2-dicarboxylic acid]", "EC50": 1070},
      {"smiles": "C=C(C)[C@@H]1CC[C@]2(NCCN(c3ccc(Cl)cn3)S(=O)(=O)C(F)(F)F)CC[C@]3(C)[C@H](CC[C@@H]4[C@@]5(C)CC=C(C6=CC7(C6)CC(C(=O)O)(C(=O)O)C7)C(C)(C)[C@@H]5CC[C@]43C)[C@@H]12", "note": "[Example A3, 6-((1R,3 aS,5aR,5bR,7aR,11aS,11bR,13 aR,13bR)-3a-((2-(N-(5-chloropyridin-2-yl)-1,1,1-trifluoromethylsulfonamido)ethyl)amino)-5a,5b,8,8,11a-pentamethyl-1-(prop-1-en-2-yl)-2,3,3a,4,5,5a,5b,6,7,7a,8,11,11a,11b,12,13,13a,13b-octadecahydro-1H-cyclopenta[a]chrysen-9-yl)spiro[3.3]hept-5-ene-2,2-dicarboxylic acid]", "EC50": 1750},
      {"smiles": "C=C(C)[C@@H]1CC[C@]2(NCCN3CCOCC3)CC[C@]3(C)[C@H](CC[C@@H]4[C@@]5(C)CC=C(C6=CC7(C6)CC(C(=O)O)(C(=O)O)C7)C(C)(C)[C@@H]5CC[C@]43C)[C@@H]12", "note": "[Example A4, 6-((1R,3aS,5aR,5bR,7aR,11aS,11bR,13aR,13bR)-5a,5b,8,8,11a-pentamethyl-3a-((2-morpholinoethyl)amino)-1-(prop-1-en-2-yl)-2,3,3a,4,5,5a,5b,6,7,7a,8,11,11a,11b,12,13,13a,13b-octadecahydro-1H-cyclopenta[a]chrysen-9-yl)spiro[3.3]hept-5-ene-2,2-dicarboxylic acid]", "EC50": 100},
      {"smiles": "C=C(C)[C@@H]1CC[C@]2(NCCN3CCS(=O)(=O)CC3)CC[C@]3(C)[C@H](CC[C@@H]4[C@@]5(C)CC=C(C6=CCC(C#N)(C(=O)O)CC6)C(C)(C)[C@@H]5CC[C@]43C)[C@@H]12", "note": "(stereo partly drawn) [Example A5, 1-cyano-4-((1R,3aS,5aR,5bR,7aR,11aS,11bR,13aR,13bR)-3a-((2-(1,1-dioxidothiomorpholino)ethyl)amino)-5a,5b,8,8,11a-pentamethyl-1-(prop-1-en-2-yl)-2,3,3a,4,5,5a,5b,6,7,7a,8,11,11a,11b,12,13,13a,13b-octadecahydro-1H-cyclopenta[a]chrysen-9-yl)cyclohex-3-enecarboxylic acid]", "EC50": 4.26},
      {"smiles": "C=C(C)[C@@H]1CC[C@]2(NCCN3CCS(=O)(=O)CC3)CC[C@]3(C)[C@H](CC[C@@H]4[C@@]5(C)CC=C(C6=CCC(Cl)(C(=O)O)CC6)C(C)(C)[C@@H]5CC[C@]43C)[C@@H]12", "note": "(stereo partly drawn) [Example A7, 1-chloro-4-((1R,3aS,5aR,5bR,7aR,11aS,11bR,13aR,13bR)-3a-((2-(1,1-dioxidothiomorpholino)ethyl)amino)-5a,5b,8,8,11a-pentamethyl-1-(prop-1-en-2-yl)-2,3,3a,4,5,5a,5b,6,7,7a,8,11,11a,11b,12,13,13a,13b-octadecahydro-1H-cyclopenta[a]chrysen-9-yl)cyclohex-3-enecarboxylic acid]", "EC50": 2.91},
      {"smiles": "C=C(C)[C@@H]1CC[C@]2(NCCN3CCC(S(C)(=O)=O)CC3)CC[C@]3(C)[C@H](CC[C@@H]4[C@@]5(C)CC=C(C6=CCC(F)(C(=O)O)CC6)C(C)(C)[C@@H]5CC[C@]43C)[C@@H]12", "note": "(stereo partly drawn) [Example A9, 1-fluoro-4-((1R,3aS,5aR,5bR,7aR,11aS,11bR,13aR,13bR)-5a,5b,8,8,11a-pentamethyl-3a-((2-(4-(methylsulfonyl)piperidin-1-yl)ethyl)amino)-1-(prop-1-en-2-yl)-2,3,3a,4,5,5a,5b,6,7,7a,8,11,11a,11b,12,13,13a,13b-octadecahydro-1H-cyclopenta[a]chrysen-9-yl)cyclohex-3-enecarboxylic acid]", "EC50": 2.84},
      {"smiles": "C=C(C)[C@@H]1CC[C@]2(NCCN3CCS(=O)(=O)CC3)CC[C@]3(C)[C@H](CC[C@@H]4[C@@]5(C)CC=C(C6=CCC(CCO)(C(=O)O)CC6)C(C)(C)[C@@H]5CC[C@]43C)[C@@H]12", "note": "(stereo partly drawn) [Example A10, 4-((1R,3aS,5aR,5bR,7aR,11aS,11bR,13aR,13bR)-3a-((2-(1,1-dioxidothiomorpholino)ethyl)amino)-5a,5b,8,8,11a-pentamethyl-1-(prop-1-en-2-yl)-2,3,3a,4,5,5a,5b,6,7,7a,8,11,11a,11b,12,13,13a,13b-octadecahydro-1H-cyclopenta[a]chrysen-9-yl)-1-(2-hydroxyethyl)cyclohex-3-enecarboxylic acid]", "EC50": 4.86},
      {"smiles": "C=C(C)[C@@H]1CC[C@]2(NCCN3CCS(=O)(=O)CC3)CC[C@]3(C)[C@H](CC[C@@H]4[C@@]5(C)CC=C(C6=CCC(CO)(C(=O)O)CC6)C(C)(C)[C@@H]5CC[C@]43C)[C@@H]12", "note": "(stereo partly drawn) [Example A12, 4-((1R,3aS,5aR,5bR,7aR,11aS,11bR,13aR,13bR)-3a-((2-(1,1-dioxidothiomorpholino)ethyl)amino)-5a,5b,8,8,11a-pentamethyl-1-(prop-1-en-2-yl)-2,3,3a,4,5,5a,5b,6,7,7a,8,11,11a,11b,12,13,13a,13b-octadecahydro-1H-cyclopenta[a]chrysen-9-yl)-1-(hydroxymethyl)cyclohex-3-enecarboxylic acid]", "EC50": 2.46},
      {"smiles": "C=C(C)[C@@H]1CC[C@]2(CNCCCN3CCS(=O)(=O)CC3)CC[C@]3(C)[C@H](CC[C@@H]4[C@@]5(C)CC=C(C6=CC7(C6)CC(C(=O)O)(C(=O)O)C7)C(C)(C)[C@@H]5CC[C@]43C)[C@@H]12", "note": "[Example A14, 6-((1R,3aS,5aR,5bR,7aR,11aS,11bR,13aR,13bR)-3a-(((3-(1,1-dioxidothiomorpholino)propyl)amino)methyl)-5a,5b,8,8,11a-pentamethyl-1-(prop-1-en-2-yl)-2,3,3a,4,5,5a,5b,6,7,7a,8,11,11a,11b,12,13,13a,13b-octadecahydro-1H-cyclopenta[a]chrysen-9-yl)spiro[3.3]hept-5-ene-2,2-dicarboxylic acid]", "EC50": 190},
      {"smiles": "C=C(C)[C@@H]1CC[C@]2(NCCN3CCS(=O)(=O)CC3)CC[C@]3(C)[C@H](CC[C@@H]4[C@@]5(C)CC=C(C6=CC(C)=C(C(=O)O)CC6)C(C)(C)[C@@H]5CC[C@]43C)[C@@H]12", "note": "[Example A16, 4-((1R,3aS,5aR,5bR,7aR,11aS,11bR,13aR,13bR)-3a-((2-(1,1-dioxidothiomorpholino)ethyl)amino)-5a,5b,8,8,11a-pentamethyl-1-(prop-1-en-2-yl)-2,3,3a,4,5,5a,5b,6,7,7a,8,11,11a,11b,12,13,13a,13b-octadecahydro-1H-cyclopenta[a]chrysen-9-yl)-2-methylcyclohexa-1,3-dienecarboxylic acid]", "EC50": 2.23},
      {"smiles": "C=C(C)[C@@H]1CC[C@]2(NCCN3CCS(=O)(=O)CC3)CC[C@]3(C)[C@H](CC[C@@H]4[C@@]5(C)CC=C(C6=COC(C)(C(=O)O)OC6)C(C)(C)[C@@H]5CC[C@]43C)[C@@H]12", "note": "(stereo partly drawn) [Example A17, 5-((1R,3aS,5aR,5bR,7aR,11aS,11bR,13aR,13bR)-3a-((2-(1,1-dioxidothiomorpholino)ethyl)amino)-5a,5b,8,8,11a-pentamethyl-1-(prop-1-en-2-yl)-2,3,3a,4,5,5a,5b,6,7,7a,8,11,11a,11b,12,13,13a,13b-octadecahydro-1H-cyclopenta[a]chrysen-9-yl)-2-methyl-4H-1,3-dioxine-2-carboxylic acid]", "EC50": 320},
      {"smiles": "C=C(C)[C@@H]1CC[C@]2(NCCN3CCS(=O)(=O)CC3)CC[C@]3(C)[C@H](CC[C@@H]4[C@@]5(C)CC=C(C6=CC(C(=O)O)CC6)C(C)(C)[C@@H]5CC[C@]43C)[C@@H]12", "note": "(stereo partly drawn) [Example A21, 3-((1R,3aS,5aR,5bR,7aR,11aS,11bR,13aR,13bR)-3a-((2-(1,1-dioxidothiomorpholino)ethyl)amino)-5a,5b,8,8,11a-pentamethyl-1-(prop-1-en-2-yl)-2,3,3a,4,5,5a,5b,6,7,7a,8,11,11a,11b,12,13,13a,13b-octadecahydro-1H-cyclopenta[a]chrysen-9-yl)cyclopent-2-enecarboxylic acid]", "EC50": 2.76},
      {"smiles": "C=C(C)[C@@H]1CC[C@]2(NCCN3CCS(=O)(=O)CC3)CC[C@]3(C)[C@H](CC[C@@H]4[C@@]5(C)CC=C(C6=CCC(C(=O)O)C6)C(C)(C)[C@@H]5CC[C@]43C)[C@@H]12", "note": "(stereo partly drawn) [Example A22, 3-((1R,3aS,5aR,5bR,7aR,11aS,11bR,13aR,13bR)-3a-((2-(1,1-dioxidothiomorpholino)ethyl)amino)-5a,5b,8,8,11a-pentamethyl-1-(prop-1-en-2-yl)-2,3,3a,4,5,5a,5b,6,7,7a,8,11,11a,11b,12,13,13a,13b-octadecahydro-1H-cyclopenta[a]chrysen-9-yl)cyclopent-3-enecarboxylic acid]", "EC50": 3.53}
    ]}
  ]
}
